# Biological target: T1, Tyrosine-protein phosphatase non-receptor type 2 (Homo sapiens, UniProt P17706)
# T1 sequence (P17706 whole entry): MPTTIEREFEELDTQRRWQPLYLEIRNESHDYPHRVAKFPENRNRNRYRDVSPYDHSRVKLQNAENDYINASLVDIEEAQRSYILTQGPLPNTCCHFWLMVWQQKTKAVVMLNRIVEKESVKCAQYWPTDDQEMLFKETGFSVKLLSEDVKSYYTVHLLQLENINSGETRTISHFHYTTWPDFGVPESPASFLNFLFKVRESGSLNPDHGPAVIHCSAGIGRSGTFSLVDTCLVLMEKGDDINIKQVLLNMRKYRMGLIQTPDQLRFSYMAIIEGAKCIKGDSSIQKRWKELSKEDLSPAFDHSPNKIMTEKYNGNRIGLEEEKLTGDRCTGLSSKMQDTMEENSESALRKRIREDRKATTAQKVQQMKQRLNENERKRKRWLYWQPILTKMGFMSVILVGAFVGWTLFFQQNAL
# Experiment: Inhibition of TCPTP (unknown origin)
row,Compound,IC50
1,CCOC(=O)COC(=O)/C(C)=C\C(C)=C\c1csc([C@H](Cc2ccc(OCc3ccccc3)cc2)NC(=O)CCCc2c[nH]c3ccccc23)n1,12.7 µM
2,CCOC(=O)COC(=O)/C(C)=C\C(C)=C\c1csc([C@H](Cc2ccc(OCc3ccccc3)cc2)NC(=O)[C@H](Cc2c[nH]c3ccccc23)NC(C)=O)n1,8.84 µM
3,C=CCOC(=O)N[C@@H](COC(=O)/C(C)=C\C(C)=C\c1csc([C@H](Cc2ccc(OCc3ccccc3)cc2)NC(=O)OC(C)(C)C)n1)C(=O)N1CCC[C@H]1C(=O)OC(C)(C)C,3.95 µM
4,CCOC(=O)/C(C)=C\C(C)=C\c1csc([C@H](Cc2ccc(OCc3ccccc3)cc2)NC(=O)C2CCCCC2)n1,15.6 µM

# More lines, now with the values ahead:
row,IC50,Compound
1,17.7 µM,CC(=O)N[C@@H](Cc1c[nH]c2ccccc12)C(=O)N[C@@H](Cc1ccc(OCc2ccccc2)cc1)c1nc(/C=C(C)/C=C(/C)C(=O)OCC(=O)O)cs1
2,14 µM,CCOC(=O)COC(=O)/C(C)=C\C(C)=C\c1csc([C@H](Cc2ccc(OCc3ccccc3)cc2)NC(=O)Cc2c[nH]c3ccccc23)n1
3,9.98 µM,C/C(=C/C(C)=C/c1csc([C@H](Cc2ccc(OCc3ccccc3)cc2)NC(=O)Cc2c[nH]c3ccccc23)n1)C(=O)OCC(=O)O
4,11.1 µM,C/C(=C/C(C)=C/c1csc([C@H](Cc2ccc(OCc3ccccc3)cc2)NC(=O)CCCc2c[nH]c3ccccc23)n1)C(=O)OCC(=O)O

# Biological target: Receptor-type tyrosine-protein phosphatase F (Homo sapiens, UniProt P10586)
# Experiment: Inhibition of LAR (unknown origin) using 3-O-Methylfluorescein phosphate as substrate preincubated for 3 mins followed by substrate addition
# Receptor-type tyrosine-protein phosphatase F, sequence (P10586 whole entry): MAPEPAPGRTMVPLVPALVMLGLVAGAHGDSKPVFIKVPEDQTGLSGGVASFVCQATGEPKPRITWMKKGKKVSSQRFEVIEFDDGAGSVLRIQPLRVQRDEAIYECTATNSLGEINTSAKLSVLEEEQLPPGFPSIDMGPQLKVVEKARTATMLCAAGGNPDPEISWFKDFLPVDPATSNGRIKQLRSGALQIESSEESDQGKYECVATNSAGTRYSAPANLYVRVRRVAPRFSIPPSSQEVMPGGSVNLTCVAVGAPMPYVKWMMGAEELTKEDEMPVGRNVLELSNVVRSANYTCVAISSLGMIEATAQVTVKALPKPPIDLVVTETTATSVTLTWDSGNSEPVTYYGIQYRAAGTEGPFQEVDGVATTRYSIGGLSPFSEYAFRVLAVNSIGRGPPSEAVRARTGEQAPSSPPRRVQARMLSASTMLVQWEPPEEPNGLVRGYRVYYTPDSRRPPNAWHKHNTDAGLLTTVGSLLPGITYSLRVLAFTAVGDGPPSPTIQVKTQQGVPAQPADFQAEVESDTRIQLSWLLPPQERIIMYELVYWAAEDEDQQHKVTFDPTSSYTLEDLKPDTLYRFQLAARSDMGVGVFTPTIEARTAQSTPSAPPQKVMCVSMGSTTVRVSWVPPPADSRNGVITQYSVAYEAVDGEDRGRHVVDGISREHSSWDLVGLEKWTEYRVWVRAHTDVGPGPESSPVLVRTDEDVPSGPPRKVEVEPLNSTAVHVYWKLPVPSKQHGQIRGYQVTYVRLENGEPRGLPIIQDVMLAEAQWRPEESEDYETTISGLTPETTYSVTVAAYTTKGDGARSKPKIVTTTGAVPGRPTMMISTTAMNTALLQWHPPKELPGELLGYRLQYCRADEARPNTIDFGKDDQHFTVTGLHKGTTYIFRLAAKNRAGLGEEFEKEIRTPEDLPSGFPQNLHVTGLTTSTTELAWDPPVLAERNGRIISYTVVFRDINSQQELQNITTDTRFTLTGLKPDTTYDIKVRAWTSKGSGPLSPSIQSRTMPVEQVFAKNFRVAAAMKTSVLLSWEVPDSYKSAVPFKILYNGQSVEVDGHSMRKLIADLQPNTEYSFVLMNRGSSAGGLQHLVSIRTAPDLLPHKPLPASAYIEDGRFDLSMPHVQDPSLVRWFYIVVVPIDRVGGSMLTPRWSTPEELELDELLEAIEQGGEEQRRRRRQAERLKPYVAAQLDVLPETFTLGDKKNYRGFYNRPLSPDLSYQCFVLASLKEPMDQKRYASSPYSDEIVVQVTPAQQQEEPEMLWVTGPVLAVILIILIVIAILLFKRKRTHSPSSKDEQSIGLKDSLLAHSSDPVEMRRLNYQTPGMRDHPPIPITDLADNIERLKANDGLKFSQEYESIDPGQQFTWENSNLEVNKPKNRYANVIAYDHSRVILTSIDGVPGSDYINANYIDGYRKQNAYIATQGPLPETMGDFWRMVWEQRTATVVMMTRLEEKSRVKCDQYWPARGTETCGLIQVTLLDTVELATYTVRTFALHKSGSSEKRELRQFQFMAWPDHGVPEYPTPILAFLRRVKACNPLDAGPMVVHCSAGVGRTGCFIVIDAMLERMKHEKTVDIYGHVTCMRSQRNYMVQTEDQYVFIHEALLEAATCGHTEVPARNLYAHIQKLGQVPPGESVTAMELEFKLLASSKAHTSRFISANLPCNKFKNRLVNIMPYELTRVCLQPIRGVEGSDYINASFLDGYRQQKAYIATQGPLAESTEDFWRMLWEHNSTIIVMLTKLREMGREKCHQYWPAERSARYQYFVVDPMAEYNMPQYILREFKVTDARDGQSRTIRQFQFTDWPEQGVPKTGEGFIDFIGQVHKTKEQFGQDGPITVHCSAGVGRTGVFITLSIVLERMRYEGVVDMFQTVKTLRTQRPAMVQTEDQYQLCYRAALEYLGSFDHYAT
row,Compound,IC50
1,CCOC(=O)COC(=O)/C(C)=C\C(C)=C\c1csc([C@H](Cc2ccc(OCc3ccccc3)cc2)NC(=O)CCCc2c[nH]c3ccccc23)n1,> 20 µM
2,CCOC(=O)COC(=O)/C(C)=C\C(C)=C\c1csc([C@H](Cc2ccc(OCc3ccccc3)cc2)NC(=O)[C@H](Cc2c[nH]c3ccccc23)NC(C)=O)n1,> 20 µM
3,CCOC(=O)/C(C)=C\C(C)=C\c1csc([C@H](Cc2ccc(OCc3ccccc3)cc2)NC(=O)C2CCCCC2)n1,> 20 µM

# Now from value to compound:
row,IC50,Compound
1,> 20 µM,CC(=O)N[C@@H](Cc1c[nH]c2ccccc12)C(=O)N[C@@H](Cc1ccc(OCc2ccccc2)cc1)c1nc(/C=C(C)/C=C(/C)C(=O)OCC(=O)O)cs1
2,> 20 µM,CCOC(=O)COC(=O)/C(C)=C\C(C)=C\c1csc([C@H](Cc2ccc(OCc3ccccc3)cc2)NC(=O)Cc2c[nH]c3ccccc23)n1
3,> 20 µM,C/C(=C/C(C)=C/c1csc([C@H](Cc2ccc(OCc3ccccc3)cc2)NC(=O)Cc2c[nH]c3ccccc23)n1)C(=O)OCC(=O)O
4,> 20 µM,C/C(=C/C(C)=C/c1csc([C@H](Cc2ccc(OCc3ccccc3)cc2)NC(=O)CCCc2c[nH]c3ccccc23)n1)C(=O)OCC(=O)O

# Biological target: Tyrosine-protein phosphatase non-receptor type 6 (Homo sapiens, UniProt P29350)
# Experiment: Inhibition of SHP1 (unknown origin) using 3-O-Methylfluorescein phosphate as substrate preincubated for 3 mins followed by substrate addition
# Tyrosine-protein phosphatase non-receptor type 6, sequence (P29350 whole entry): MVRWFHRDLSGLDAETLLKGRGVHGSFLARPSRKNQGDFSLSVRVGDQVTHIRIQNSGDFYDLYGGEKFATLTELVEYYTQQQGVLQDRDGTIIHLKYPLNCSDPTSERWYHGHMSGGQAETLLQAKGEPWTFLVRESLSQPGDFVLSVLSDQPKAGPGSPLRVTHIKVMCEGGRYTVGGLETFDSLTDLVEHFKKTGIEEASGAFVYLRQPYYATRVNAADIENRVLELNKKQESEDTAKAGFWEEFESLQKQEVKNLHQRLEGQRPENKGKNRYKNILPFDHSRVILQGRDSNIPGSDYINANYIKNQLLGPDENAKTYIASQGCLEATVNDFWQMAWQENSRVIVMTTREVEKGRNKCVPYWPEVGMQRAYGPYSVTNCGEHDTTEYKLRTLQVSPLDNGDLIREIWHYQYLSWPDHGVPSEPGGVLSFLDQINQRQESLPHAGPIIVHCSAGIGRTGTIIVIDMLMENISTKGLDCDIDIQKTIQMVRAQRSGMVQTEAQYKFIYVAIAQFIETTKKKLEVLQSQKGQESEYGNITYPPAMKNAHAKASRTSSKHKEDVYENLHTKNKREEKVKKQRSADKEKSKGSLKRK
row,Compound,IC50
1,CCOC(=O)COC(=O)/C(C)=C\C(C)=C\c1csc([C@H](Cc2ccc(OCc3ccccc3)cc2)NC(=O)CCCc2c[nH]c3ccccc23)n1,> 20 µM
2,CCOC(=O)COC(=O)/C(C)=C\C(C)=C\c1csc([C@H](Cc2ccc(OCc3ccccc3)cc2)NC(=O)[C@H](Cc2c[nH]c3ccccc23)NC(C)=O)n1,> 20 µM
3,CCOC(=O)/C(C)=C\C(C)=C\c1csc([C@H](Cc2ccc(OCc3ccccc3)cc2)NC(=O)C2CCCCC2)n1,> 20 µM

# Other lines, results leading:
row,IC50,Compound
1,> 20 µM,CC(=O)N[C@@H](Cc1c[nH]c2ccccc12)C(=O)N[C@@H](Cc1ccc(OCc2ccccc2)cc1)c1nc(/C=C(C)/C=C(/C)C(=O)OCC(=O)O)cs1
2,> 20 µM,CCOC(=O)COC(=O)/C(C)=C\C(C)=C\c1csc([C@H](Cc2ccc(OCc3ccccc3)cc2)NC(=O)Cc2c[nH]c3ccccc23)n1
3,> 20 µM,C/C(=C/C(C)=C/c1csc([C@H](Cc2ccc(OCc3ccccc3)cc2)NC(=O)Cc2c[nH]c3ccccc23)n1)C(=O)OCC(=O)O
4,> 20 µM,C/C(=C/C(C)=C/c1csc([C@H](Cc2ccc(OCc3ccccc3)cc2)NC(=O)CCCc2c[nH]c3ccccc23)n1)C(=O)OCC(=O)O

# Biological target: T2, Tyrosine-protein phosphatase non-receptor type 11 (Homo sapiens, UniProt Q06124)
# T2 sequence (Q06124 whole entry): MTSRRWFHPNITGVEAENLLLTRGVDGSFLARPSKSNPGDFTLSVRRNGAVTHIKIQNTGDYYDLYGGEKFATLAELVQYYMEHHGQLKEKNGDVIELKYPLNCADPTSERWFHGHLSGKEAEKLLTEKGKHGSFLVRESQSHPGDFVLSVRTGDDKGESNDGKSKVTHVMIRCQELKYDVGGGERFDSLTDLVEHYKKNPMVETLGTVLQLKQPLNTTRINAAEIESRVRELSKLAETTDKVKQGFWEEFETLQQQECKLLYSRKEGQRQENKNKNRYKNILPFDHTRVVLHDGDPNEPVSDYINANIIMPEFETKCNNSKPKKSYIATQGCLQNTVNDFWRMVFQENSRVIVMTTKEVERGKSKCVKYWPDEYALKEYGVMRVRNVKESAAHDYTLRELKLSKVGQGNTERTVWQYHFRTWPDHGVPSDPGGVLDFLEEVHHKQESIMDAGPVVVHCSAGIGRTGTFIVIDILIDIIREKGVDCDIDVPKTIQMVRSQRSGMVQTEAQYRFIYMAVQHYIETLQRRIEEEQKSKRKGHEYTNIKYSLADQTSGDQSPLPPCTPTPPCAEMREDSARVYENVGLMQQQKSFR
# Experiment: Inhibition of SHP2 (unknown origin) using 3-O-Methylfluorescein phosphate as substrate preincubated for 3 mins followed by substrate addition
row,Compound,IC50
1,CCOC(=O)COC(=O)/C(C)=C\C(C)=C\c1csc([C@H](Cc2ccc(OCc3ccccc3)cc2)NC(=O)CCCc2c[nH]c3ccccc23)n1,> 20 µM
2,CCOC(=O)COC(=O)/C(C)=C\C(C)=C\c1csc([C@H](Cc2ccc(OCc3ccccc3)cc2)NC(=O)[C@H](Cc2c[nH]c3ccccc23)NC(C)=O)n1,> 20 µM
3,CCOC(=O)/C(C)=C\C(C)=C\c1csc([C@H](Cc2ccc(OCc3ccccc3)cc2)NC(=O)C2CCCCC2)n1,> 20 µM

# Second part, the compound after the results:
row,IC50,Compound
1,> 20 µM,CC(=O)N[C@@H](Cc1c[nH]c2ccccc12)C(=O)N[C@@H](Cc1ccc(OCc2ccccc2)cc1)c1nc(/C=C(C)/C=C(/C)C(=O)OCC(=O)O)cs1
2,> 20 µM,CCOC(=O)COC(=O)/C(C)=C\C(C)=C\c1csc([C@H](Cc2ccc(OCc3ccccc3)cc2)NC(=O)Cc2c[nH]c3ccccc23)n1
3,> 20 µM,C/C(=C/C(C)=C/c1csc([C@H](Cc2ccc(OCc3ccccc3)cc2)NC(=O)Cc2c[nH]c3ccccc23)n1)C(=O)OCC(=O)O
4,> 20 µM,C/C(=C/C(C)=C/c1csc([C@H](Cc2ccc(OCc3ccccc3)cc2)NC(=O)CCCc2c[nH]c3ccccc23)n1)C(=O)OCC(=O)O

# Biological target: T3, Tyrosine-protein phosphatase non-receptor type 1 (Homo sapiens, UniProt P18031)
# T3 sequence (P18031 whole entry): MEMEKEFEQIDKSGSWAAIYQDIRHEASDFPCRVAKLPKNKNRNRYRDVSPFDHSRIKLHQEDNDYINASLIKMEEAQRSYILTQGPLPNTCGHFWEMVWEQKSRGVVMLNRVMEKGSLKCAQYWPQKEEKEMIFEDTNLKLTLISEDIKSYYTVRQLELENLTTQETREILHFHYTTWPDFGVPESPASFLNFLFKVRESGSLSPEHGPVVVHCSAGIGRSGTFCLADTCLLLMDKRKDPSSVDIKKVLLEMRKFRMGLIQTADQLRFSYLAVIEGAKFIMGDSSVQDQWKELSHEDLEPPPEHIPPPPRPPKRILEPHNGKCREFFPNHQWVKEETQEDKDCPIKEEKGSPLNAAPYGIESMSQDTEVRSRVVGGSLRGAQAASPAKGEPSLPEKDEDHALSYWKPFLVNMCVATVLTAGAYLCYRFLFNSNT
# Experiment: Inhibition of GST-tagged PTP1B (unknown origin) using pNPP as substrate measured for 2 mins by spectrophotometry
row,Compound,IC50
1,CCOC(=O)COC(=O)/C(C)=C\C(C)=C\c1csc([C@H](Cc2ccc(OCc3ccccc3)cc2)NC(=O)CCCc2c[nH]c3ccccc23)n1,3.05 µM
2,CCOC(=O)COC(=O)/C(C)=C\C(C)=C\c1csc([C@H](Cc2ccc(OCc3ccccc3)cc2)NC(=O)[C@H](Cc2c[nH]c3ccccc23)NC(C)=O)n1,2.08 µM
3,C=CCOC(=O)N[C@@H](COC(=O)/C(C)=C\C(C)=C\c1csc([C@H](Cc2ccc(OCc3ccccc3)cc2)NC(=O)OC(C)(C)C)n1)C(=O)N1CCC[C@H]1C(=O)OC(C)(C)C,4.42 µM
4,CCOC(=O)/C(C)=C\C(C)=C\c1csc([C@H](Cc2ccc(OCc3ccccc3)cc2)NC(=O)C2CCCCC2)n1,9.32 µM

# More lines, now with the values ahead:
row,IC50,Compound
1,3.01 µM,CC(=O)N[C@@H](Cc1c[nH]c2ccccc12)C(=O)N[C@@H](Cc1ccc(OCc2ccccc2)cc1)c1nc(/C=C(C)/C=C(/C)C(=O)OCC(=O)O)cs1
2,5.94 µM,CCOC(=O)COC(=O)/C(C)=C\C(C)=C\c1csc([C@H](Cc2ccc(OCc3ccccc3)cc2)NC(=O)Cc2c[nH]c3ccccc23)n1
3,3.68 µM,C/C(=C/C(C)=C/c1csc([C@H](Cc2ccc(OCc3ccccc3)cc2)NC(=O)Cc2c[nH]c3ccccc23)n1)C(=O)OCC(=O)O
4,2.45 µM,C/C(=C/C(C)=C/c1csc([C@H](Cc2ccc(OCc3ccccc3)cc2)NC(=O)CCCc2c[nH]c3ccccc23)n1)C(=O)OCC(=O)O

# Biological target: T4, M-phase inducer phosphatase 2 (Homo sapiens, UniProt P30305)
# T4 sequence (P30305 whole entry): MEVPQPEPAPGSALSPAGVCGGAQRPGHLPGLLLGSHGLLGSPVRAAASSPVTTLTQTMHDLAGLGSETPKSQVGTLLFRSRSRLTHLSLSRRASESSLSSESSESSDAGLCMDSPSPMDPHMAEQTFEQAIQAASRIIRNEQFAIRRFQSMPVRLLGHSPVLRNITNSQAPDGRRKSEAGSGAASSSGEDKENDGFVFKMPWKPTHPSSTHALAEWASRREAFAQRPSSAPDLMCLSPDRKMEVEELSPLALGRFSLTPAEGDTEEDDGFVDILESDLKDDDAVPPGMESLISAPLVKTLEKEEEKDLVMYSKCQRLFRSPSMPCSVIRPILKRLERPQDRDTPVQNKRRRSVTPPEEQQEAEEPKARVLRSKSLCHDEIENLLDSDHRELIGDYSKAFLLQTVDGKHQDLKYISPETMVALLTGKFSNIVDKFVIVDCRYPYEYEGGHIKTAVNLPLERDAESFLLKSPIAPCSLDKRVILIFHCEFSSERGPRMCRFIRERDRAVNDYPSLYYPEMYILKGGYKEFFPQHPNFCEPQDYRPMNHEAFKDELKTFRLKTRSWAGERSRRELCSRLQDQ
# Experiment: Inhibition of CDC25B (unknown origin) using 3-O-Methylfluorescein phosphate as substrate preincubated for 3 mins followed by substrate addition
row,Compound,IC50
1,CCOC(=O)COC(=O)/C(C)=C\C(C)=C\c1csc([C@H](Cc2ccc(OCc3ccccc3)cc2)NC(=O)CCCc2c[nH]c3ccccc23)n1,2.55 µM
2,CCOC(=O)COC(=O)/C(C)=C\C(C)=C\c1csc([C@H](Cc2ccc(OCc3ccccc3)cc2)NC(=O)[C@H](Cc2c[nH]c3ccccc23)NC(C)=O)n1,2.4 µM
3,CCOC(=O)/C(C)=C\C(C)=C\c1csc([C@H](Cc2ccc(OCc3ccccc3)cc2)NC(=O)C2CCCCC2)n1,3.92 µM

# Results, then the compound that gave them:
row,IC50,Compound
1,5.41 µM,CC(=O)N[C@@H](Cc1c[nH]c2ccccc12)C(=O)N[C@@H](Cc1ccc(OCc2ccccc2)cc1)c1nc(/C=C(C)/C=C(/C)C(=O)OCC(=O)O)cs1
2,2.83 µM,CCOC(=O)COC(=O)/C(C)=C\C(C)=C\c1csc([C@H](Cc2ccc(OCc3ccccc3)cc2)NC(=O)Cc2c[nH]c3ccccc23)n1
3,4.88 µM,C/C(=C/C(C)=C/c1csc([C@H](Cc2ccc(OCc3ccccc3)cc2)NC(=O)Cc2c[nH]c3ccccc23)n1)C(=O)OCC(=O)O
4,4.38 µM,C/C(=C/C(C)=C/c1csc([C@H](Cc2ccc(OCc3ccccc3)cc2)NC(=O)CCCc2c[nH]c3ccccc23)n1)C(=O)OCC(=O)O
